Measurements taken from patent US4511577A, “Derivatives of benzoic acid” (Media Research s.r.l., priority 1983, dated 1985).

Key:
[1] = system: carrageenin induced oedema in rat paw; assay: carrageenin induced oedema in rat paw (antiinflammatory activity); format: in vivo; conditions: 75 mg/kg per os; for AREA Δ % (paw volume): control 243.3; for paw average volume, 30' / paw average volume, 1h / paw average volume, 2h / paw average volume, 3h / paw average volume, 6h / paw average volume, Basal: 5 animals
Experimental: The antiinflammatory activity of MR-[…] in comparison with acetylsalicylic acid was determined by the test of carrageenin induced oedema in rat paw, according to the method of Winter, […], Ness. (Proc. Soc. Exp. Biol. Med., 111, 544-547, 1962). […] The paw volume was determined using an apparatus supplied by U. Basile Ltd.

[2] = tail-flick test (analgesic activity); format: in vivo; conditions: 75 mg/kg os; for AREA Δ % (tail-flick): control 170.45
Experimental: The analgesic activity was determined according to the tail-flick test, employing an apparatus supplied by Socrel Ltd., Milano, Italy.

[3] = plasmatic kinetics in rat after oral administration
Experimental: The plasmatic kynetic of acetylsalicylic acid in rat was compared after oral administration of equimolecular doses of MR-Y134 and […] (466 mg/kg MR-Y134 and 300 mg/kg ASA respectively).
The compounds were both administered in the form of 2% gum arabic suspension to rats fastened for 12 hours. Each animal was administered with 1.0 ml of solution.
The rats were killed at the following times: 1, 2, 4, 8, 12 hours after the administration of the compounds.
The blood sample was drawn in heparin.

[4] = system: gastric mucosa; assay: gastro-injuring action on the gastric mucosa; format: in vivo, Male Sprague-Dawley rats; conditions: oral, equimolecular doses, rats fasted 48 hours
Experimental: The action on the gastric mucosa of MR-Y134 in comparison with equimolecular doses of ASA was determined according to the method described by Pisanti and Volterra (I1 Farmaco, vol. 25, (2), 105).
The products were administered orally.
Male Sprague-Dawley rats were used fastened for 48 hours with water ad libitum.
The control group was administered with the solvent only (1% carboxymethylcellulose).

Row | Structure (SMILES) | % inhibition versus control (area, paw oedema) [1] [%] | AREA Δ % (paw volume) [1] | Percent variation of paw volume with respect to 0 time, 30' [1] [%] | paw average volume, 30' [1] [mL] | Percent variation of paw volume with respect to 0 time, 1h [1] [%] | paw average volume, 1h [1] [mL] | Percent variation of paw volume with respect to 0 time, 2h [1] [%] | paw average volume, 2h [1] [mL] | Percent variation of paw volume with respect to 0 time, 3h [1] [%] | paw average volume, 3h [1] [mL] | Percent variation of paw volume with respect to 0 time, 6h [1] [%] | paw average volume, 6h [1] [mL] | paw average volume, Basal [1] [mL] | % inhibition versus control (area, tail-flick) [2] [%] | AREA Δ % (tail-flick) [2] | Percent variation of reaction time with respect to 0 time, 1h [2] [%] | Reaction time, 1h [2] [s] | Percent variation of reaction time with respect to 0 time, 3h [2] [%] | Reaction time, 3h [2] [s] | Percent variation of reaction time with respect to 0 time, 6h [2] [%] | further results
1 | CC(=O)Oc1ccccc1C(=O)O [ASA, acetylsalicylic acid] | 53.41 | 113.35 Δ % | 9.71 | 1.69 | 13.57 | 1.75 | 16.30 | 1.79 | 17.71 | 1.81 | 62.13 | 2.49 | 1.55 | 16.61 | 142.13 Δ % | 23.01 | 7.16 | 26.66 | 6.82 | 27.31 | Reaction time, 6h [2]: 6.76 s; Reaction time, Basal [2]: 9.30 s
2 | O=C(Oc1ccccc1C(=O)O)c1cccs1 [MR-Y134, 2-(2-thenoyloxy)-benzoic acid] | 47.51 | 127.69 Δ % | 8.03 | 1.71 | 14.96 | 1.82 | 14.18 | 1.8 | 20.46 | 1.9 | 76.48 | 2.79 | 1.58 | 50.18 | 84.91 Δ % | 9.36 | 8.9 | 18.94 | 7.96 | 15.68 | antiinflammatory activity compared with ASA ([1]; equal amounts by weight): good antiinflammatory activity, substantially equal to the one of ASA; height of plasma peak compared with sodium salicylate ([3]; rat, in vivo, po): substantially higher; persistence in the bloodstream ([3]; rat, in vivo, po): higher and more prolonged persistence in the bloodstream; time of plasma peak ([3]; rat, in vivo, po): third hour; gastro-injuring activity compared with ASA [4]: scarce gastro-injuring activity, substantially lower than the one of ASA; Reaction time, 6h [2]: 8.28 s; Reaction time, Basal [2]: 9.82 s; analgesic activity compared with ASA ([2]; equal amounts by weight): three times higher than the one of ASA
3 | O=C([O-])c1ccccc1O.[Na+] [SODIUM SALICYLATE, sodium salicylate] |  |  |  |  |  |  |  |  |  |  |  |  |  |  |  |  |  |  |  |  | time of plasma peak ([3]; oral, equimolecular doses): second hour; concentration at 1 h ([3]; rat, in vivo, po, 300 mg/kg): 362 µg/mL; concentration at 2 h ([3]; rat, in vivo, po, 300 mg/kg): 534 µg/mL; concentration at 4 h ([3]; rat, in vivo, po, 300 mg/kg): 470 µg/mL; concentration at 8 h ([3]; rat, in vivo, po, 300 mg/kg): 456 µg/mL; concentration at 12 h ([3]; rat, in vivo, po, 300 mg/kg): 325 µg/mL
